The text below walks through data of US20240067639A1, “SMALL MOLECULES THAT TARGET THE RNA THAT CAUSES ALS” (EXPANSION THERAPEUTICS, INC., priority 2020, published 2024).

Assay [1] deals with RAN translation of (G4C2)66-No ATG-GFP in HEK293T cells. Briefly: Cell-based assay of RAN translation inhibition (GFP/mCherry reporter). The note with it: Homo sapiens, HEK-293T, 24 h, read-out: RANT IC25.
Assay [2] has as its target biotinylated r(G4C2)8 RNA and hnRNP H1-His6. Put plainly: TR-FRET hnRNP H binding assay. The method, then:
TR-FRET hnRNP H Binding Assay. The TR-FRET assays were performed as previously described (Disney et al., 2012) except the final concentrations of biotinylated r(G4C2)8 (SEQ ID NO: 2) RNA and hnRNP H1-His6 were 80 nM and 75 nM, respectively. The RNA was folded by heating to 95° C. for 5 min in 1× Folding Buffer followed by slowly cooling to room temperature. The buffer was adjusted to 1×TR-FRET Assay Buffer followed by addition of compound. The mixture was incubated for 15 min at room temperature and then hnRNP H1-His6 was added. After an additional 15 min incubation, streptavidin-XL665 (HTRF, Cisbio Bioassays) and anti-His6-Tb (HTRF, Cisbio Bioassays) were added to a final concentration of 40 nM and 0.44 ng/μL, respectively. After incubating for 1 h, TR-FRET was measured as previously described. The IC50s were either calculated by fitting the equation (1) in Graphpad Prism.

Where [3] appears, read: Table F, HEK293T, 24 h treatment.
[4] abbreviates: Table D, HEK293T, 24 h treatment.

Like-named read-outs stand apart in the source and are kept apart here.

On to `Cc1c2ccnc(C(=O)N[C@H](C)CN(C)C)c2cc2c3ccc(OCCCN4CCN(C)CC4)cc3n(C)c12` [Compound 222, (R)—N-(1-(dimethylamino)propan-2-yl)-5,6-dimethyl-8-(3-(4-methylpiperazin-1-yl)-propoxy)-6H-pyrido[4,3-b]carbazole-1-carboxamide], for which the IC25 in assay [1] (setting [3]) was above 5 µM. The same molecule showed a Ki in assay [2] (Table F) of 6.1 µM.

Consider `COc1ccc2c(c1)c1cc3cnccc3c(C)c1n2C` [Compound 1, 9-methoxy-5,6-dimethyl-6H-pyrido[4,3-b]carbazole], for which the IC25 in assay [1] (setting [4]) was above 5 µM. In assay [2] (Table D), this molecule returned a Ki above 200 µM.

In the case of `Cc1c2ccncc2cc2c3cc(OC[C@@H](C)N)ccc3n(C)c12` [Example 61, (R)-1-((5,6-dimethyl-6H-pyrido[4,3-b]carbazol-9-yl)oxy)propan-2-amine], in assay [1] (setting [4]), the 25% effect concentration (IC25) turned out to be 1 µM. For the same molecule, in assay [2] (Table D), the Ki was 0.9 µM.

For `Cc1c2ccncc2cc2c3cc(OCCN(C)C)ccc3n(C)c12` [Compound 5], the IC25 in assay [1] (setting [4]) came out at 0.5 µM. In addition, in assay [2] (Table D), the affinity, expressed as Ki, was 20 µM.

For `Cc1c2ccncc2cc2c3cc(OCCN4CCCCCC4)ccc3n(C)c12` [Compound 219, 9-(2-(azepan-1-yl)ethoxy)-5,6-dimethyl-6H-pyrido[4,3-b]carbazole], in assay [1], the IC25 is above 5 µM. The molecule further displayed a Ki in assay [2] (Table F) of 1.2 µM.

In the case of `Cn1c2ccc(OCC3=NCCN3)cc2c2cc3cnccc3cc21` [Compound 234, 9-((4,5-dihydro-1H-imidazol-2-yl)methoxy)-6-methyl-6H-pyrido[4,3-b]carbazole], the IC25 in assay [1] (setting [3]) stood at 0.65 µM. In assay [2] (Table F), affinity was put at a Ki of 0.8 µM.

As to `Cc1c2ccncc2cc2c3cc(N4CCNC5(CC5)C4)ccc3n(C)c12` [Compound 246, 5,6-dimethyl-9-(4,7-diazaspiro[2.5]octan-7-yl)-6H-pyrido[4,3-b]carbazole], in assay [1] (setting [3]), the IC25 is above 5 µM. This molecule registered a Ki in assay [2] (Table F) of 1.6 µM.

In the case of `Cc1c2ccncc2cc2c3cc(OCC(=O)N(C)C)ccc3n(C)c12` [Example 57, 2-((5,6-dimethyl-6H-pyrido[4,3-b]carbazol-9-yl)oxy)-N,N-dimethylacetamide], in assay [1] (setting [4]), the IC25 came to 4 µM. In addition, the Ki in assay [2] (Table D) amounted to 5.2 µM.

Regarding `Cc1c2ccncc2cc2c3c(OCC4=NCCN4)cccc3n(C)c12` [Example 56, 10-((4,5-dihydro-1H-imidazol-2-yl)methoxy)-5,6-dimethyl-6H-pyrido[4,3-b]carbazole], the IC25 in assay [1] (setting [4]) came out at 0.67 µM. Besides, in assay [2] (Table D), the Ki turned out to be 1 µM.

Turning to `CNC(=O)c1ccc2c(c1)c1cc3cnccc3c(C)c1n2C` [Example 70, N,5,6-trimethyl-6H-pyrido[4,3-b]carbazole-9-carboxamide], the IC25 in assay [1] (setting [4]) stood at 3.6 µM. In assay [2] (Table D), this molecule displayed a Ki of 36 µM.

Take `COCCNC(=O)c1ccc2c(c1)c1cc3cnccc3c(C)c1n2C` [Compound 215, N-(2-methoxyethyl)-5,6-dimethyl-6H-pyrido[4,3-b]carbazole-9-carboxamide]: the 25% effect concentration (IC25) in assay [1] (setting [3]) was above 5 µM. The molecule also came in with a Ki in assay [2] (Table F) of 12 µM.

On to `Cn1c2ccc(OCC(=N)N)cc2c2cc3cnccc3cc21` [Compound 245, 2-((6-methyl-6H-pyrido[4,3-b]carbazol-9-yl)oxy)acetimidamide], for which the IC25 in assay [1] (setting [3]) came out at 1.7 µM. The same molecule had a Ki in assay [2] (Table F) of 0.8 µM.

As for `Cc1c2ccncc2cc2c3cc(OCCN4CCOCC4)ccc3n(CC(C)(C)C)c12` [Compound 247, 4-(2-((5-methyl-6-neopentyl-6H-pyrido[4,3-b]carbazol-9-yl)oxy)ethyl)morpholine], the concentration for an effect of 25% (IC25) in assay [1] (setting [3]) was above 5 µM. For the same molecule, the Ki in assay [2] (Table F) was above 200 µM.

As to `Cc1c2ccncc2cc2c3cc(OC[C@H](C)N(C)C)ccc3n(C)c12` [Compound 230, (S)-1-((5,6-dimethyl-6H-pyrido[4,3-b]carbazol-9-yl)oxy)-N,N-dimethylpropan-2-amine], the IC25 in assay [1] (setting [3]) amounted to 4.3 µM. Moreover, in assay [2] (Table F), the affinity corresponds to a Ki of 1.2 µM.

Turning to `CNCCNC(=O)c1ccc2c(c1)c1cc3cnccc3c(C)c1n2C` [Example 73, 5,6-dimethyl-N-(2-(methylamino)ethyl)-6H-pyrido[4,3-b]carbazole-9-carboxamide], in assay [1] (setting [4]), the IC25 worked out at 0.84 µM. Besides, in assay [2] (Table D), the Ki is 13 µM.

On to `Cc1c2ccncc2cc2c3cc(OCC4=NCCN4)ccc3n(C(C)C)c12` [Example 84, 9-(4,5-dihydro-1H-imidazol-2-ylmethoxy)-6-isopropyl-5-methyl-pyrido[4,3-b]carbazole], for which the IC25 in assay [1] (setting [4]) is above 5 µM. In assay [2] (Table D), this molecule registered a Ki of 13 µM.

Regarding `Cc1c2ccncc2cc2c1[nH]c1ccc(OCC3=NCCN3)cc12` [Compound 257, 9-((4,5-dihydro-1H-imidazol-2-yl)methoxy)-5-methyl-6H-pyrido[4,3-b]carbazole], in assay [1] (setting [3]), the IC25 is 2.7 µM. Moreover, the affinity in assay [2] (Table F), expressed as Ki, was 5.7 µM.

Turning to `Cc1c2ccncc2cc2c3cc(OCCN4CCC(C)(C)CC4)ccc3n(C)c12` [Compound 223, 9-(2-(4,4-dimethylpiperidin-1-yl)ethoxy)-5,6-dimethyl-6H-pyrido[4,3-b]carbazole], the concentration for an effect of 25% (IC25) in assay [1] (setting [3]) was found to be 3.8 µM. Affinity in assay [2] (Table F) was put at a Ki of 3.1 µM.

Turning to `COc1ccc2c(c1)c1cc3c(C(=O)NCCN(C)C)nccc3c(C)c1n2C` [Example 28, N-[2-(dimethylamino)ethyl]-9-methoxy-5,6-dimethyl-pyrido[4,3-b]carbazole-1-carboxamide], the IC25 in assay [1] (setting [4]) came out at 0.64 µM. For the same molecule, in assay [2] (Table D), the Ki came to 8.1 µM.

`Cc1c2ccncc2cc2c3cc(C(=O)NCCN4CCCCC4)ccc3n(C)c12` [Example 77, 5,6-dimethyl-N-(2-(piperidin-1-yl)ethyl)-6H-pyrido[4,3-b]carbazole-9-carboxamide]: the IC25 in assay [1] (setting [4]) was determined as 1.7 µM. In assay [2] (Table D), this molecule registered a Ki of 1.2 µM.

On to `Cc1c2ccncc2cc2c3cc(OCc4nccn4C)ccc3n(C)c12` [Example 35, 5,6-dimethyl-9-((1-methyl-1H-imidazol-2-yl)methoxy)-6H-pyrido[4,3-b]carbazole], for which the IC25 in assay [1] (setting [4]) was above 5 µM. This molecule also gave a Ki in assay [2] (Table D) of 38 µM.

On to `Cc1c2ccncc2cc2c3cc(OCCN4CCS(=O)(=O)CC4)ccc3n(C)c12` [Compound 217, 4-(2-((5,6-dimethyl-6H-pyrido[4,3-b]carbazol-9-yl)oxy)ethyl)thiomorpholine 1,1-dioxide], for which, in assay [1] (setting [3]), the 25% effect concentration (IC25) is above 5 µM. The molecule also gave a Ki in assay [2] (Table F) of 8.5 µM.

Consider `Cc1c2ccncc2cc2c1oc1ccc(OCCN(C)C)cc12` [Compound 236, N,N-dimethyl-2-((5-methylbenzofuro[2,3-g]isoquinolin-9-yl)oxy)ethanamine], for which the IC25 in assay [1] is above 5 µM. Also, in assay [2] (Table F), the Ki is 14 µM.

The molecule `Cc1c2ccncc2cc2c1sc1ccc(OCCN3CCOCC3)cc12` [Example 81, 4-[2-(5-methylbenzothiopheno[2,3-g]isoquinolin-9-yl)oxyethyl]morpholine] yielded a Ki in assay [2] (Table D) above 200 µM.

The molecule `COc1ccc2sc3c(C)c4ccncc4cc3c2c1` [Example 67, 9-methoxy-5-methyl-benzothiopheno[2,3-g]isoquinoline] yielded an inhibition constant (Ki) in assay [2] (Table D) above 200 µM.

Consider `COc1ccc2c(c1)c1cc3cnccc3c(C)c1n2CCCN1CCN(C)CC1` [Compound 22, 9-methoxy-5-methyl-6-(3-(4-methylpiperazin-1-yl)propyl)-6H-pyrido[4,3-b]carbazole], for which the Ki in assay [2] (Table D) is above 200 µM.

With `COc1ccc2[nH]c3c(C)c4ccncc4c(O)c3c2c1` [Example 48, 9-methoxy-5-methyl-6H-pyrido[4,3-b]carbazol-11-ol], the Ki in assay [2] (Table D) is above 200 µM.

For the molecule `Cc1c2ccncc2cc2c3cc(OCC4=NCCN4)ccc3n(CCCN3CCN(C)CC3)c12` [Example 43, 9-((4,5-dihydro-1H-imidazol-2-yl)methoxy)-5-methyl-6-(3-(4-methylpiperazin-1-yl)propyl)-6H-pyrido[4,3-b]carbazole], the Ki in assay [2] (Table D) came to 27 µM.

Turning to `COC(=O)CCCOc1ccc2c(c1)c1cc3cnccc3c(C)c1n2C` [Example 44b, methyl 4-((5,6-dimethyl-6H-pyrido[4,3-b]carbazol-9-yl)oxy)butanoate], the Ki in assay [2] (Table D) is above 200 µM.

Take `COc1ccc2c(c1)c1cc3cnccc3c(C)c1n2CC1=NCCN1` [Compound 21, 6-((4,5-dihydro-1H-imidazol-2-yl)methyl)-9-methoxy-5-methyl-6H-pyrido[4,3-b]carbazole]: the Ki in assay [2] (Table D) is above 200 µM.

With `Cn1c2ccc(OCCN3CCOCC3)cc2c2cc3ncccc3cc21` [Compound 225, 4-(2-((6-methyl-6H-pyrido[3,2-b]carbazol-9-yl)oxy)ethyl)morpholine], in assay [2] (Table F), the Ki is above 200 µM.

`Cn1c2ccc(OCCN3CCOCC3)cc2c2cc3cnccc3cc21` [Example 46, 4-[2-(6-methylpyrido[4,3-b]carbazol-9-yl)oxyethyl]morpholine] showed a Ki in assay [2] (Table D) of 4.6 µM.

The molecule `Cc1c2ccncc2cc2c3cc(OCCCC(=N)N)ccc3n(C)c12` [Example 44a, 4-((5,6-dimethyl-6H-pyrido[4,3-b]carbazol-9-yl)oxy)butanimidamide] yielded an inhibition constant Ki in assay [2] (Table D) of 10 µM.

The molecule `COc1cccc2c3cc4c(C(=O)N[C@H](C)CN(C)C)nccc4c(C)c3n(C)c12` [Compound 240, (R)—N-(1-(dimethylamino)propan-2-yl)-7-methoxy-5,6-dimethyl-6H-pyrido[4,3-b]carbazole-1-carboxamide] yielded a Ki in assay [2] (Table F) of 20 µM.

On to `COc1ccc2oc3c(C)c4ccncc4cc3c2c1` [Example 66, 9-methoxy-5-methyl-benzofuro[2,3-g]isoquinoline], for which the inhibitory constant (Ki) in assay [2] (Table D) was above 200 µM.
